From article PMC10180054, “Design, Synthesis and Biological Evaluation of Novel Pleuromutilin Derivatives Containing 6-Chloro-1-R-1H-pyrazolo[3,4-d]pyrimidine-4-amino Side Chain” (Molecules, 2023)
Converted amounts (≈) assume the structure as drawn.

Assays:
MRSA ATCC 43300 [1] = experiment: MIC/MBC by broth dilution (CLSI); type: cell-based, Staphylococcus aureus
In short: (§1)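 CLSI broth dilution used twofold compound series from 64 to 0.0625 µg/mL (stocks in water with 2.5% DMSO and 2.5% Tween-80) and a final inoculum of 5 × 10^5 CFU/mL, in triplicate. For MBC, 25 µL from wells without visible growth was plated on MH agar and cultured 24 h at 37 °C.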

S. aureus 144 = experiment: MIC/MBC by broth dilution (CLSI); type: cell-based; conditions: Staphylococcus aureus; S. aureus 144 (clinical strain)
In short: as §1

S. aureus AD3 = experiment: MIC/MBC by broth dilution (CLSI); type: cell-based; conditions: Staphylococcus aureus; S. aureus AD3 (clinical strain)
In short: as §1

S. aureus ATCC 29213 = experiment: MIC/MBC by broth dilution (CLSI); type: cell-based; conditions: Staphylococcus aureus, ATCC29213
In short: as §1

MRSA ATCC 43300 [2] = experiment: Constant concentration time–kill curves; type: cell-based, Staphylococcus aureus
Protocol: Time–kill kinetic assays were performed, which were used to investigate the in vitro bactericidal kinetic effect of compounds 12c, 19c, 22c and tiamulin.
Time–kill curve assays were established with the MIC value to investigate the antibacterial effect of constant drug concentration on MRSA. […] MRSA ATCC 43300 was incubated in MH broth at 37 °C for 4.5 h and diluted to 1 × 10^6 CFU/mL in MH broth. The saline control group was subjected to the same schedule but 0.9% saline water was added instead of the test compound. All the samples were incubated in an oscillating thermostatic at 37 °C, and then 100 μL of the mixture was extracted to 900 μL of sterile saline (0.9%) at 0, 3, 6, 9, 12 and 24 h, respectively. Samples were serially diluted 10-fold in sterile saline (0.9%) and inoculated onto agar plates. The colonies were counted after incubation at 37 °C for 24 h. Three independent experiments were performed according to our previous work. Time–kill curves were constructed by plotting the log10 CFU per millilitre versus time, and the change in bacterial concentration was determined.

MRSA ATCC 43300 [3] = experiment: Post-antibiotic effect (PAE); type: cell-based, Staphylococcus aureus
Protocol: PAE has been considered as pharmacodynamic assistance which provides a reference for the rational formulation of dosing regimen. PAE refers to the temporary suppression of bacterial growth following transient antibiotic treatment. PAE assays were conducted for compounds 12c and 22c.
PAE is calculated from growth curves on the difference in time required for the number (1 log10 CFU/mL) of drug-exposed and unexposed microbes. […] The PAE values of compounds 12c and 22c increased with increasing incubation time.
PAE of compounds 12c and 22c on MRSA ATCC 43300 was determined using MH broth according to our previous work. The final concentration of MRSA was 1 × 10^6 CFU/mL by dilution with MH broth. Compounds 12c, 22c and tiamulin were supplemented in the suspension at a final concentration of 2 × MIC and 4 × MIC, respectively. The negative control group contained untreated MRSA bacterial cells. The test tubes were incubated with a 37 °C constant temperature vibration incubator for 1 and 2 h. After incubation, the test compound was removed from the sample by diluting 1000-fold with the preheated MH broth. Next, 100 μL of suspension from each culture was 10-fold diluted in sterile saline and inoculated on MH agar plates at 0, 2, 4, 6 and 8 h after inoculation. The number of colonies was calculated after incubation at 37 °C for 24 h. The experiments were performed in triplicate.

16-HBE cells = experiment: Cytotoxicity MTT assay; type: cell-based, human; conditions: 1~8 μg/mL, 16 h
Protocol: (§2) The presence of compounds can influence cellular basic physiological processes, suppress proliferation and even reduce cell survival, etc. In the community, MRSA generally causes respiratory infection. Therefore, cytotoxicity was evaluated to explore the effect of compounds 12c and 22c on the viability of the respiratory tract cells 16-HBE (human bronchial epithelial cell line). RAW 264.7 (mouse peritoneal macrophage cell line) and Caco-2 (human epithelial colorectal adenocarcinoma cell line) were also used to evaluate the cytotoxicity of compounds 12c and 22c by MTT assay.
(§3) Cytotoxicity of the test compounds was assessed using the conventional MTT method. RAW 264.7 murine macrophage cells, Caco-2 cells and 16-HBE were used in this experiment. The cells were seeded into 96-well plates at a density of 1.0 × 10^5 cells per well. After 4 h at 37 °C, the cells were treated with compounds 12c and 22c at various concentrations and incubated at 37 °C for 16 h. Next, MTT (0.5 mg/mL in PBS, 100 μL/well) was added sequentially to each well in a humidified atmosphere of 95% air and 5% CO2 incubator and the incubation continued for an additional four hours. After incubation, the medium was peeled off and DMSO (150 μL/well) was added to dissolve the cells, and then the incubation was continued for 30 min. At the end of this period, the absorbance was measured at 490 nm by a microplate spectrophotometer (BIO-TEK Instruments, Winooski, VT, USA).

Caco-2 cells = experiment: Cytotoxicity MTT assay; type: cell-based, human; conditions: 1~8 μg/mL, 16 h
Protocol: as §2, §3

MRSA ATCC 43300 [4] = experiment: Neutropenic murine thigh infection model; type: in vivo; conditions: neutropenic mice, 20 mg/kg, 24 h after dosing, n = 6/group
Protocol: Therefore, the in vivo efficacy of compounds 12c and 22c were assessed using the murine neutropenic thigh infection model. Mice groups treated with saline and tiamulin were chosen as the negative and positive controls.
Model experiments of neutropenic mouse thigh infection were manipulated as described in the literature. Female, six-week-old, specific-pathogen-free mice weighing approximately 23~26 g were used throughout the study. Mice were rendered neutropenic by injection of cyclophosphamide (Mead Johnson Pharmaceuticals, Evansville, IN) on day 4 (150 mg/kg) and day 1 (100 mg/kg) before the experiment. The neutrophil numbers in mice blood should be <0.1 × 10^9/L [34]. In total, 0.1 mL of MH broth of MRSA (10^7 CFU/mL) was inoculated into each thigh of the neutropenic mice. Mice were divided into 4 groups (6 mice per group), including control (sterile saline), compounds 12c, 22c and tiamulin groups. After 3 h post-infection, the corresponding drugs were injected into each mouse’s thigh. Mice were euthanized following intravenous injection for 24 h. Thigh tissue of each mouse was removed, collected, weighed and homogenized in 3 mL of ice sterile saline. Six ten-fold serial dilutions were performed and 25 μL of the bacterial solution from each tube was plated on MH agar plates. The resulting colonies were counted after 24 h incubation at 37 °C. The protocol for this study was reviewed and approved by the Institutional Animal Care and Use Committee of the South China Agricultural University.

Work on `C=C[C@]1(C)C[C@@H](OC(=O)CSc2ccc(Nc3nc(Cl)nc4c3cnn4-c3cccc(C)c3)cc2)[C@]2(C)[C@H](C)CC[C@]3(CCC(=O)[C@H]32)[C@@H](C)[C@@H]1O` [Compound 12c, 22-[4-(6-Chloro-1-(3-methylphenyl)-1H-pyrazolo[3,4-d]pyrimidine-4-yl)amino-Phenylsulfanyl]-22-deoxypleuromutilin] yielded an MBC (MRSA ATCC 43300 [1]; Staphylococcus aureus, MRSA ATCC 43300, 99.9% of the bacteria killed) of 0.5 µg/mL (≈ 0.686 µM), an MIC (MRSA ATCC 43300 [1]; Staphylococcus aureus, MRSA ATCC 43300, broth dilution, 24 h, 37 °C, read-out: MIC) of 0.25 µg/mL (≈ 0.343 µM) and an MBC/MIC ratio (MRSA ATCC 43300 [1]; against MRSA) of no more than 2. It also gave an MBC (S. aureus 144) of 1 µg/mL (≈ 1.37 µM), an MIC (S. aureus 144) of 0.5 µg/mL (≈ 0.686 µM) and an MBC (S. aureus AD3) of 0.25 µg/mL (≈ 0.343 µM). For the same compound, the MIC (S. aureus AD3) was 0.125 µg/mL (≈ 0.172 µM), the MBC (S. aureus ATCC 29213; S. aureus ATCC 29213) was 0.5 µg/mL (≈ 0.686 µM) and the MIC (S. aureus ATCC 29213; S. aureus ATCC 29213, broth dilution, 24 h, 37 °C) was 0.25 µg/mL (≈ 0.343 µM). The “MRSA killed in time–kill assay” value (MRSA ATCC 43300 [2]; 2 × MIC, 24 h incubation) was 99.99%, the “reduction of MRSA in time–kill assay” value (MRSA ATCC 43300 [2]; 2 × MIC, 24 h incubation) was −4.51 log10 CFU/mL and the “reduction of MRSA in time–kill assay” value (MRSA ATCC 43300 [2]; 4 × MIC) was −5.76 log10 CFU/mL. The “type of bactericidal kinetics” value (MRSA ATCC 43300 [2]; time–kill curves, 1 to 32 × MIC) was “time-dependent”, the PAE (MRSA ATCC 43300 [3]; 2 × MIC, exposure for 1 h) was 0.37 h and the PAE (MRSA ATCC 43300 [3]; 2 × MIC, exposure for 2 h) was 1.72 h. For the same compound, the PAE (MRSA ATCC 43300 [3]; 4 × MIC, exposure for 1 h) was 0.43 h, the PAE (MRSA ATCC 43300 [3]; 4 × MIC, exposure for 2 h) was 1.73 h and the “effect on viability of 16-HBE cells” value (16-HBE cells) was “did not affect the viability”. The “effect on viability of Caco-2 cells” value (Caco-2 cells) was “did not affect the viability”, the “reduction of MRSA load in thigh vs growth control” value (MRSA ATCC 43300 [4]) was −0.79 log10 CFU/mL and the melting point was 95 to 97 °C.
